Key:
Assay type in all cases: cell-based
[1] = target: T1, human TLR7 (Homo sapiens, UniProt Q9NYK1); assay: TLR7 inhibition reporter assay (HEK-Blue cells, SEAP reporter, gardiquimod stimulation); settings: HEK-Blue cells overexpressing human TLR7, SEAP reporter, gardiquimod 7.5 μM
T1 construct: host or cells: HEK-Blue cells
T1 sequence (Q9NYK1 27-1049): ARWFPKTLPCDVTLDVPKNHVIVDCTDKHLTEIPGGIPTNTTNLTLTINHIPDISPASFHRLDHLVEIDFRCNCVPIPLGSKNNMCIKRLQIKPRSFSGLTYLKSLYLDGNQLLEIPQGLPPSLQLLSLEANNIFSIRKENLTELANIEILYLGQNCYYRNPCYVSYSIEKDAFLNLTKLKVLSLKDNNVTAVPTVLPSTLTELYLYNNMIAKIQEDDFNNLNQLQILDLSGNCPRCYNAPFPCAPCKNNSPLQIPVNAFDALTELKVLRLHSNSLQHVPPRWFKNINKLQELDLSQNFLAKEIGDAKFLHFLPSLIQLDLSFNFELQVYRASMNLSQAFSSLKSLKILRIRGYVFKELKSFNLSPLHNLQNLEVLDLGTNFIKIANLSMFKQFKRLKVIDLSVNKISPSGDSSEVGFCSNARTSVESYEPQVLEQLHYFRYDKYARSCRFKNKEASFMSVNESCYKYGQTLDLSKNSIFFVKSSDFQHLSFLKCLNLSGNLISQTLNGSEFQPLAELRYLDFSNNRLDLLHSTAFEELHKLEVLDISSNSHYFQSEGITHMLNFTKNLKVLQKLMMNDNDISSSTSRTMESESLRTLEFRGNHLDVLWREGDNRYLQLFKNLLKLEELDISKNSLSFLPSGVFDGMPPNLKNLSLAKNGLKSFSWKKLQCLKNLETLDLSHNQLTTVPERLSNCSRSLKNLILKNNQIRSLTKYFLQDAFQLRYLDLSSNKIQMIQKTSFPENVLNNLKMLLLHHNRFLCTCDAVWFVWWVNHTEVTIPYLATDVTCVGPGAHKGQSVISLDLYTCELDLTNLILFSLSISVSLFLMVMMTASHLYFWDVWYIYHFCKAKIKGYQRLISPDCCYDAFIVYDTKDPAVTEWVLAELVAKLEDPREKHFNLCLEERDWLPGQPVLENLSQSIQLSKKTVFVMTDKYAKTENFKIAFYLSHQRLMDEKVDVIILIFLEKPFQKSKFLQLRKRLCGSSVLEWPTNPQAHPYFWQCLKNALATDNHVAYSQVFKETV
Procedure: (§1) TLR7/8/9 Inhibition Reporter Assays
(§2) HEK-Blue™-cells (Invivogen) overexpressing human TLR7, TLR8 or TLR9 receptors were used for screening inhibitors of these receptors using an inducible SEAP (secreted embryonic alkaline phosphatase) reporter gene under the control of the IFN-β minimal promoter fused to five NF-κB and AP-1-binding sites. Briefly, cells are seeded into Greiner 384 well plates (15000 cells per well for TLR7, 20,000 for TLR8 and 25,000 for TLR9) and then treated with test compounds in DMSO to yield a final dose response concentration range of 0.05 nM-50 μM. After a 30 minute compound pre-treatment at room temperature, the cells are then stimulated with a TLR7 ligand (gardiquimod at a final concentration of 7.5 μM), TLR8 ligand (R848 at a final concentration of 15.9 μM) or TLR9 ligand (ODN2006 at a final concentration of 5 nM) to activate NF-κB and AP-1 which induce the production of SLA After a 22 hour incubation at 37° C., […], SEAP levels are determined with the addition of HEK-Blue™ Detection reagent (Invivogen), a cell culture medium that allows for detection of SLAP, according to manufacturer's specifications. The percent inhibition is determined as the % reduction in the HEK-Blue signal present in wells treated with agonist plus DMSO alone compared to wells treated with a known inhibitor.

[2] = target: T2, human TLR8 (Homo sapiens, UniProt Q9NR97); assay: TLR8 inhibition reporter assay (HEK-Blue cells, SEAP reporter, R848 stimulation); settings: HEK-Blue cells overexpressing human TLR8, SEAP reporter, R848 15.9 μM
T2 construct: host or cells: HEK-Blue cells
T2 sequence (Q9NR97 27-1041): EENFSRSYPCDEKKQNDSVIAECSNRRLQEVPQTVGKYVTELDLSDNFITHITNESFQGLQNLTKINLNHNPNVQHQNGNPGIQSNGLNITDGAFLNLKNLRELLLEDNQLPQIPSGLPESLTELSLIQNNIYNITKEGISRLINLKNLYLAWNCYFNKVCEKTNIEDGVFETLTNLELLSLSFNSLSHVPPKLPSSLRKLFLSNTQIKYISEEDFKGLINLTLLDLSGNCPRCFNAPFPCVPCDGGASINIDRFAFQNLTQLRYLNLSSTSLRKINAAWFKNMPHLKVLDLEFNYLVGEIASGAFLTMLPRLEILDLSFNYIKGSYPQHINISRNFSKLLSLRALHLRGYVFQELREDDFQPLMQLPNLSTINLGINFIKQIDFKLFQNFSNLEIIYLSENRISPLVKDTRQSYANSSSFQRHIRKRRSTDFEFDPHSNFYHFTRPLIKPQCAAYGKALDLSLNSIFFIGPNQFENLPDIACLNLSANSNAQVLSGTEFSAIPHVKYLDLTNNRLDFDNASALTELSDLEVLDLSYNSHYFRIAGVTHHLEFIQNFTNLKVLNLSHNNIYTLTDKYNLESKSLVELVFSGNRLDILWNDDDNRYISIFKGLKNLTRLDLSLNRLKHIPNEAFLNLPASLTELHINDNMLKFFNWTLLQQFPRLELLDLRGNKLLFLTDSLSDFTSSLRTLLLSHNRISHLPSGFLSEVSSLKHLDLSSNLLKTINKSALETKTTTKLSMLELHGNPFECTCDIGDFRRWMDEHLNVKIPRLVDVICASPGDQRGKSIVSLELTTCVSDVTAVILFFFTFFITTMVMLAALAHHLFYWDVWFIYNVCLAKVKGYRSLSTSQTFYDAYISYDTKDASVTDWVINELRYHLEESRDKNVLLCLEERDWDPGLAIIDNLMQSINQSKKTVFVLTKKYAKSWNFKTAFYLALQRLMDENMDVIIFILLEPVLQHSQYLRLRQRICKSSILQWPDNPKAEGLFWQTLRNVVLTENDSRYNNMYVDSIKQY
Procedure: as §1, §2

[3] = target: T3, human TLR9 (Homo sapiens, UniProt Q9NR96); assay: TLR9 inhibition reporter assay (HEK-Blue cells, SEAP reporter, ODN2006 stimulation); settings: HEK-Blue cells overexpressing human TLR9, SEAP reporter, ODN2006 5 nM
T3 construct: host or cells: HEK-Blue cells
T3 sequence (Q9NR96 26-1032): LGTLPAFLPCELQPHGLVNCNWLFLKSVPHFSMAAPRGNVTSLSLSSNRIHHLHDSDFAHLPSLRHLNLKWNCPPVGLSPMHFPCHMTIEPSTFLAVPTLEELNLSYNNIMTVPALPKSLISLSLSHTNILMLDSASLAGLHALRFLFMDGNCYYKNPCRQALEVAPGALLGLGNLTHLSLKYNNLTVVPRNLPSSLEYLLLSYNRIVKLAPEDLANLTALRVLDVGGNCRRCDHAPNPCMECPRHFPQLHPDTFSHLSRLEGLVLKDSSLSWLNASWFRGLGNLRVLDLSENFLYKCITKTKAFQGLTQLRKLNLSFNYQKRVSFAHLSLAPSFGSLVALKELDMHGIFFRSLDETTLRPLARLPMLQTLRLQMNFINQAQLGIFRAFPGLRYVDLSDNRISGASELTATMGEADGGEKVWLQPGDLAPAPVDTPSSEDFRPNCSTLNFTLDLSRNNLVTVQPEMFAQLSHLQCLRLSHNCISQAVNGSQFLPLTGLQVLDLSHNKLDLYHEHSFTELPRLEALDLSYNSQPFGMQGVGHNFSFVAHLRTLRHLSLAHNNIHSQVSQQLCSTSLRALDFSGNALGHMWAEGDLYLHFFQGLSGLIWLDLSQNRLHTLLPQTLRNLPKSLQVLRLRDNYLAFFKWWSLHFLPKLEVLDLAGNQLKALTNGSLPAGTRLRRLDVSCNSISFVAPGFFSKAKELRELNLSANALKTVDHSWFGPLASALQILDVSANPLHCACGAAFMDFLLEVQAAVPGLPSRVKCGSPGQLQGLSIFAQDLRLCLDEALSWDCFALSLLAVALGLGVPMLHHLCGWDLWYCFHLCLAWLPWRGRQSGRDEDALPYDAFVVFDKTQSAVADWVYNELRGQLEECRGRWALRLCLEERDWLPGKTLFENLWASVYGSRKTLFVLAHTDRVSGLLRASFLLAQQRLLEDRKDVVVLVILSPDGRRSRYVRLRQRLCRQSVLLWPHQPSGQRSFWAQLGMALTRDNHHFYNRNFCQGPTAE
Procedure: as §1, §2

IC50 [1] [nM] | IC50 [2] [nM] | IC50 [3] [nM] | Structure (SMILES)
5.09 | 16.8 | 6290 | Cc1cc(-c2[nH]nc(C(=O)NC3CCC(NC4(C)COC4)CC3)c2C(C)C)cn2ncnc12 (centres unmarked) [Example 123]
241 | 404 | > 50000 | COc1cc(-c2[nH]nc(-c3ccc(C4CCN(CCS(C)(=O)=O)CC4)cn3)c2C(C)C)cn2ncnc12 [Example 392]
9.47 | 4.22 | 44400 | Cc1cc(-c2[nH]nc(-c3ccc(C4CCN(CC(C)(C)C)CC4)cc3)c2C(C)C)cn2ncnc12 [Example 317]
0.62 | 0.63 | 7390 | Cc1cc(-c2[nH]nc(C3CCN(CC(=O)N(C)C)CC3)c2C(C)C)cn2ncnc12 [compound 212]
0.96 | 1.94 | 4560 | Cc1cc(-c2[nH]nc(-c3ccc4c(c3)CCN(CC(=O)N(C)C)C4)c2C(C)C)cn2ncnc12 [Example 271, 2-(6-(4-isopropyl-5-(8-methyl-[1,2,4]triazolo[1,5-a]pyridin-6-yl)-1H-pyrazol-3-yl)-3,4-dihydroisoquinolin-2(1H)-yl)-N,N-dimethylacetamide]
26.8 | 22.9 | 22000 | Cc1cc(-c2[nH]nc(-c3ccc4c(c3)CCN(CC(C)(C)O)C4)c2C(C)C)cn2ncnc12 [Example 264]
19.9 | 3.86 | 36600 | COc1cc(-c2[nH]nc(-c3ccc(C4CCNCC4)cn3)c2C(C)C)cn2ncnc12 [Example 339, 6-(4-isopropyl-3-(5-(piperidin-4-yl)pyridin-2-yl)-1H-pyrazol-5-yl)-8-methoxy-[1,2,4]triazolo[1,5-a]pyridine]
19.9 | 8.4 | 35600 | COc1cc(-c2[nH]nc(-c3ccc(C4CCN(CC5CCOCC5)CC4)cn3)c2C(C)C)cn2ncnc12 [Example 375]
41.5 | 21.5 | > 50000 | Cc1cc(-c2[nH]nc(C(=O)NC3CN(C(C)C)C3)c2C(C)C)cn2ncnc12 [Example 155]
10.6 | 2.68 | 45300 | Cc1cc(-c2[nH]nc(-c3ncc4c(n3)CCN(C3COC3)C4)c2C(C)C)cn2ncnc12 [Example 251]
0.93 | 3.96 | 14800 | Cc1cc(-c2[nH]nc(C(=O)NC3CCN(CC(C)(C)O)CC3)c2C(C)C)cn2ncnc12 [Example 138]
60.8 | 154 | > 50000 | Cc1cc(-c2[nH]nc(-c3ccc4c(c3)CCN(C(C)C)C4)c2C(C)C)cn2ncnc12 [Example 246]
3.98 | 3.02 | > 50000 | Cc1cc(-c2[nH]nc(C(=O)N(C)C)c2C(C)C)cn2ncnc12 [Example 31]
5.42 | 17.8 | > 50000 | COc1cc(-c2[nH]nc(-c3ccc(C4CCN(CC5(C)COC5)CC4)cc3)c2C(C)C)cn2ncnc12 [Example 312]
1.32 | 4.43 | 15600 | CCN1CCC[C@H](NC(=O)c2n[nH]c(-c3cc(C)c4ncnn4c3)c2C(C)C)C1 [Example 164]
9.44 | 14.2 | > 50000 | Cc1cc(-c2[nH]nc(C3CCC(N(C)C(=O)C4CN(C)C4)CC3)c2C(C)C)cn2ncnc12 (single isomer, unassigned) [Example 302]
1.34 | 0.7 | 6420 | Cc1cc(-c2[nH]nc(C(=O)N[C@H]3CC[C@@H](NC4COC4)CC3)c2C(C)C)cn2ncnc12 [Example 86]
0.59 | 1.64 | 2870 | Cc1noc(C)c1CN1CCC(NC(=O)c2n[nH]c(-c3cc(C)c4ncnn4c3)c2C(C)C)CC1 [Example 78]
43.6 | 124 | > 50000 | CCN(CC)CC(=O)N1CCC(c2cnc(-c3n[nH]c(-c4cc(OC)c5ncnn5c4)c3C(C)C)cn2)CC1 [Example 404]
119 | 60.2 | > 50000 | COCCN1CCc2nc(-c3n[nH]c(-c4cc(C)c5ncnn5c4)c3C(C)C)sc2C1 [Example 266]
4.36 | 3.43 |  | Cc1cc(-c2[nH]nc(C(=O)NCC3CCCCN3)c2C(C)C)cn2ncnc12 (centres unmarked) [Example 56]
